Experimental findings from the NIST ThermoML archive (doi:10.1021/je050134y) are described below.

± gives the expanded uncertainty stated by the source.

The data set can be described thus: activity coefficient (dimensionless); of the first substance listed, at infinite dilution; xn = mol fraction of the nth substance listed. The following applies: 298 K; 101.3 kPa; Liquid; Chromatography; x1 = 0.
With `C1=CCCC=C1` [1,3-cyclohexadiene] + CCCCCCCC[n+]1ccn(C)c1.F[B-](F)(F)F, the activity coefficient was found to be 2.69 ± 0.18.

Regarding `C=CCCCCCCCC` [1-decene] + CCCCCCCC[n+]1ccn(C)c1.F[B-](F)(F)F, the activity coefficient came out at 21.4 ± 1.5.

As for `C=CCCCCCCCCCC` [1-dodecene] + CCCCCCCC[n+]1ccn(C)c1.F[B-](F)(F)F, the activity coefficient was 32.7 ± 2.2.

Consider `C=CCCCCC` [1-heptene] + CCCCCCCC[n+]1ccn(C)c1.F[B-](F)(F)F, for which the activity coefficient amounted to 9.76 ± 0.67.

Regarding `C=CCCCCCCC` [1-nonene] + CCCCCCCC[n+]1ccn(C)c1.F[B-](F)(F)F, the activity coefficient amounted to 16.5 ± 1.1.

`C=CCCC` [1-pentene] + CCCCCCCC[n+]1ccn(C)c1.F[B-](F)(F)F: the activity coefficient came to 5.08 ± 0.35.

On to `C=CCCCCCCCCC` [1-undecene] + CCCCCCCC[n+]1ccn(C)c1.F[B-](F)(F)F, for which the activity coefficient worked out at 25.8 ± 1.8.

Take `CCCCO` [butan-1-ol] + CCCCCCCC[n+]1ccn(C)c1.F[B-](F)(F)F: the activity coefficient was determined as 2.32 ± 0.16.

Regarding `CCCCCCCCCC` [decane] + CCCCCCCC[n+]1ccn(C)c1.F[B-](F)(F)F, the activity coefficient was 36.4 ± 2.5.

On to `CCCCCCCCCCCC` [dodecane] + CCCCCCCC[n+]1ccn(C)c1.F[B-](F)(F)F, for which the activity coefficient turned out to be 77.9 ± 5.3.

`CCO` [ethanol] + CCCCCCCC[n+]1ccn(C)c1.F[B-](F)(F)F: the activity coefficient was 1.75 ± 0.12.

Take `CCCCCCC` [heptane] + CCCCCCCC[n+]1ccn(C)c1.F[B-](F)(F)F: the activity coefficient was 16 ± 1.1.

Consider `C=CCCCC` [hex-1-ene] + CCCCCCCC[n+]1ccn(C)c1.F[B-](F)(F)F, for which the activity coefficient was 7.06 ± 0.48.

With `CCCCCCO` [hexan-1-ol] + CCCCCCCC[n+]1ccn(C)c1.F[B-](F)(F)F, the activity coefficient was determined as 2.58 ± 0.18.

Take `CCCCCC` [hexane] + CCCCCCCC[n+]1ccn(C)c1.F[B-](F)(F)F: the activity coefficient worked out at 12.4 ± 0.8.

In the case of `CO` [methanol] + CCCCCCCC[n+]1ccn(C)c1.F[B-](F)(F)F, the activity coefficient is 1.07 ± 0.07.

As for `CCCCCCCCC` [nonane] + CCCCCCCC[n+]1ccn(C)c1.F[B-](F)(F)F, the activity coefficient was determined as 28.4 ± 1.9.

`C=CCCCCCC` [oct-1-ene] + CCCCCCCC[n+]1ccn(C)c1.F[B-](F)(F)F: the activity coefficient turned out to be 13.1 ± 0.9.

On to `CCCCCCCC` [octane] + CCCCCCCC[n+]1ccn(C)c1.F[B-](F)(F)F, for which the activity coefficient stood at 22 ± 1.5.

As to `CCCCCO` [pentan-1-ol] + CCCCCCCC[n+]1ccn(C)c1.F[B-](F)(F)F, the activity coefficient turned out to be 2.38 ± 0.16.

Take `CCCCC` [pentane] + CCCCCCCC[n+]1ccn(C)c1.F[B-](F)(F)F: the activity coefficient came to 9.07 ± 0.62.

`CCCO` [propan-1-ol] + CCCCCCCC[n+]1ccn(C)c1.F[B-](F)(F)F: the activity coefficient came out at 2.18 ± 0.15.

As to `CCCCCCCCCCC` [undecane] + CCCCCCCC[n+]1ccn(C)c1.F[B-](F)(F)F, the activity coefficient worked out at 60.9 ± 4.2.
